Test results as given in EP1464336A1, “Use of tryprostatin A for the reversal of cancer drug resistance” (Humboldt-Universität zu Berlin, priority 2003, dated 2004).

Assays:
[1] = tested on: EPG85-257RDB cells; experiment: Modulation of chemoresistance to daunorubicin (SRB proliferation assay, IC50/DMF); format: cell-based, human; conditions: GF120918; classical MDR, P-gp-expressing cells (Table 2, Figure 3B)
Method: Modulation of chemoresistance was tested using a proliferation assay based on sulforhodamine B (SRB), a protein-binding reagent (Skehan P et al., J Natl Cancer Inst 1990;82:1107-12), as described in Lage H et al., Int J Hyperthermia 2000;16:291-303; Lage H et al., FEBS Lett 2001;503:179-84; Lage H et al., FEBS Lett 2001;494:54-9. In each experiment, 350 cells per well were seeded in the presence or absence of TPS-A in 96-well plates in complete medium and allowed to attach overnight. Mitoxantrone or daunorubicin were added in a dilution series in triplicate wells. After 5 days, when unselected wells were still subconfluent, incubation was terminated by replacing the medium with 10 % trichloroacetic acid, followed by incubation at 4 °C for 1 h. […] After air-drying and re-solubilisation of the protein-bound dye in 10 mM Tris-HCl (pH 8.0), absorbance was quantified at 562.5 nm. […] Linear regression of data was done for the linear part of the curve, and IC50-values were calculated from multiple, at least three independent experiments for each cell line.
The cellular sensitivity to mitoxantrone and daunorubicin was assessed by determining the IC50 values without or with increasing concentrations of TPS-A or GF120918 as a positive control in the different cancer cell variants. […]

[2] = molecular target: P-gp (Homo sapiens, UniProt P08183); conditions: literature (Hyafil F et al., Cancer Res 1993); cited from earlier work
[3] = tested on: gastric and breast carcinoma cell variants; experiment: Modulation of chemoresistance to mitoxantrone or daunorubicin (SRB proliferation assay, IC50/DMF); format: cell-based, human
Method: (§1) Modulation of chemoresistance was tested using a proliferation assay based on sulforhodamine B (SRB), a protein-binding reagent (Skehan P et al., J Natl Cancer Inst 1990;82:1107-12), as described in Lage H et al., Int J Hyperthermia 2000;16:291-303; Lage H et al., FEBS Lett 2001;503:179-84; Lage H et al., FEBS Lett 2001;494:54-9. In each experiment, 350 cells per well were seeded in the presence or absence of TPS-A in 96-well plates in complete medium and allowed to attach overnight. Mitoxantrone or daunorubicin were added in a dilution series in triplicate wells. After 5 days, when unselected wells were still subconfluent, incubation was terminated by replacing the medium with 10 % trichloroacetic acid, followed by incubation at 4 °C for 1 h. After samples were washed 5 times with water and air-dried, 50 µl 0.4 % SRB (Sigma, St. Louis, MO) in 1 % acetic acid was added and samples were incubated for 10 min at room temperature. Unbound dye was eliminated by washing the plates 5 times with 1 % acetic acid. After air-drying and re-solubilisation of the protein-bound dye in 10 mM Tris-HCl (pH 8.0), absorbance was quantified at 562.5 nm. To determine the IC50-value, the absorbance difference of control cells without drug was set to be 100 %. Linear regression of data was done for the linear part of the curve, and IC50-values were calculated from multiple, at least three independent experiments for each cell line.
The cellular sensitivity to mitoxantrone and daunorubicin was assessed by determining the IC50 values without or with increasing concentrations of TPS-A or GF120918 as a positive control in the different cancer cell variants. Table 1 presents the data of TPS-A reversal of mitoxantrone and daunorubicin resistance in different gastric and breast carcinoma cell variants, respectively. […] In each case, the equation DMF=(IC50 (-CS))/(IC50 (+CS)) [formula] was used to calculate the dose modifying factor (DMF), comparing the IC50 values in the presence (+CS) or absence (-CS) of the corresponding chemosensitizer (CS) TPS-A or GF120918.

[4] = tested on: drug-sensitive, parental cell line MCF-7; experiment: Mitoxantrone accumulation assay (flow cytometry); format: cell-based, human; conditions: increasing modulator concentrations
Method: (§2) Cellular mitoxantrone accumulation was determined according to the procedure described in Lage H et al., FEBS Lett 2001;503:179-84. Briefly, 4 x 10^5 cells were seeded out in 6-well plates 78 hours prior to the experiment. Incubation with mitoxantrone (0, 1,5 and 10 µg/ml) was performed for 60 minutes at 37°C and 70-80 % cellular confluence. For kinetics of intracellular enrichment of mitoxantrone, cells were exposed to 10 µg/ml mitoxantrone for 0, 5, 10 and 60 min. Cells were washed with ice-cold PBS, trypsinized and resuspended in 4 °C PBS at a concentration of 4 x 10^5 cells/ml. Intracellular fluorescence of mitoxantrone was determined by flow cytometry (Becton-Dickinson, San Jose, CA). The cells were excited at 480 nm and emission was measured at 630 nm. A minimum of 10^4 cells was analyzed for each sample. All assays were performed at least in three independent experiments, each time with triplicate wells.
(§3) To provide confirmation that the observed resensitization to mitoxantrone of BCRP-overexpressing cells was indeed the result of BCRP inhibition by TPS-A, a mitoxantrone accumulation assay was performed. The known so-called "multispecific" MDR modulator GF120918, inhibiting P-gp- and BCRP activity, was used as a positive control for P-gp- and BCRP antagonism.

[5] = tested on: parental, drug-sensitive gastric carcinoma cell variant EPG85-257P; experiment: Mitoxantrone accumulation assay (flow cytometry); format: cell-based, human; conditions: GF120918 (Fig 4)
Method: as §2, §3

[6] = tested on: BCRP-transfected cell variant MCF-7/BCRP clone 8; experiment: Mitoxantrone accumulation assay (flow cytometry); format: cell-based, human; conditions: 1 µM GF120918; compared to drug accumulation level in the untreated, parental control cell line (Fig 4B)
Method: as §2, §3

[7] = tested on: BCRP; experiment: Mitoxantrone accumulation assay (flow cytometry); format: cell-based, human; conditions: human, probe mitoxantrone; 1 µM GF120918 (Fig 4); read-out: mitoxantrone accumulation inhibiting effect
Method: as §2, §3

[8] = tested on: MCF-7/AdrVp; experiment: Mitoxantrone accumulation assay (flow cytometry); format: cell-based, human; conditions: 1 µM GF120918
Method: as §2, §3

[9] = tested on: P-gp; experiment: Mitoxantrone accumulation assay (flow cytometry); format: cell-based, human; conditions: human, EPG85-257RDB cells (P-gp-expressing, classical MDR variant), probe mitoxantrone; 1 µM GF120918 (Fig 4); read-out: inhibition of mitoxantrone pump activity
Method: as §2, §3

[10] = tested on: BCRP overexpressing cells (EPG85-257RNOV); experiment: C6-NBD-PS outward translocation assay; format: cell-based, human; conditions: pretreatment with 10 µM inhibitor; 30 minutes at 37°C (Fig. 8)
Method: (§4) To measure redistribution of C6-NBD-PS from the cytoplasmic to the exoplasmic leaflet, labelling of the cytoplasmic leaflet is preconditional. Previously, we have introduced a method to achieve efficient labeling of the plasma membrane inner leaflet of the gastric carcinoma cell line EPG85-257 (Pohl, A., Lage, H., Müller, P., Pomorksi, T., and Herrmann. A. (2002) Biochem. J. 365, 259-268). Briefly, cells were preincubated with or without MDR inhibitors, labelled with 5 µM C6-NBD-PS, and incubated at 20°C for 30 minutes to allow inward movement of the NBD analogue. C6-NBD-PS remaining on the cell surface was extracted twice by incubation with 2% (w/v) BSA in mPBS for 10 minutes on ice. Before starting the outward translocation assay, the medium was removed, and cells were washed with ice-cold mPBS. For t=0', ice-cold medium containing 2% (w/v) BSA and 5 mM DFP ( = diisopropyl fluoro-phosphate) in mPBS with or without inhibitor was immediately added to the cell dish for 10 minutes. To measure C6-NBD-PS outward translocation, medium prewarmed to 37°C was added to the dish, and cells were incubated at 37°C for 30 minutes (t = 30'). Removal of the BSA-containing media and a second extraction with 2% BSA in mPBS for 10 minutes terminated incubations, followed by lipid analysis.
(§5) After the incubations, the second BSA back exchange medium was pooled with the first, and cells scraped into mPBS. For analysis of outward translocation and of metabolic conversion of C6-NBD-PS, lipids from both scraped cells and media were extracted with isopropanol/chloroform/(5.5:1, v/v) to prevent substantial loss into the aqueous phase. Samples were centrifuged at 780 g for 5 minutes, the supernatant transferred into new glass tubes and dried, dissolved in chloroform/methanol (1:1) and quantified spectroscopically. For C6-NBD-PC analysis, lipids from both cells and incubation media were extracted by the method of Bligh and Dyer (Bligh, E., and Dyer, W. (1959) Can. J Biochem. Physiol. 37, 911-917) using 20 mM acetic acid in the aqueous phase. After 2-D separation [I, chloroform/methanol/25% ammonium hydroxide (65:25:4, v/v); II, chloroform/acetone/methanol/acetic acid/water (10:4:2:2:1, v/v)] on thin layer chromatography plates, fluorescent lipid spots were visualized under ultraviolet light, scraped, and quantified as described before (Pomorski, T., Müller, P., Zimmermann, B., Burger, K., Devaux, P., and Herrmann, A. (1996) J. Cell Sci. 109, 687-698).

[11] = tested on: control cells (EPG85-257P); experiment: C6-NBD-PS outward translocation assay; format: cell-based, human; conditions: 10 µM inhibitor; 30 minutes at 37°C (Fig. 8)
Method: as §4, §5

[12] = tested on: MDR1 Pgp overexpressing subline (EPG85-257RDB); experiment: C6-NBD-PS outward translocation assay; format: cell-based, human; conditions: 10 µM inhibitor; 30 minutes at 37°C (Fig. 8)
Method: as §4, §5

[13] = tested on: drug-sensitive and drug-resistant gastric and breast cancer cell lines; experiment: Cytotoxicity of the MDR modulators alone (SRB proliferation assay); format: cell-based, human
Method: as §1
The cytotoxicity of the MDR modulators TPS-A and GF120918 on drug-sensitive and drug-resistant gastric and breast cancer cell lines was initially assessed.

Chain of P-gp (Homo sapiens, UniProt P08183) (P08183 whole entry): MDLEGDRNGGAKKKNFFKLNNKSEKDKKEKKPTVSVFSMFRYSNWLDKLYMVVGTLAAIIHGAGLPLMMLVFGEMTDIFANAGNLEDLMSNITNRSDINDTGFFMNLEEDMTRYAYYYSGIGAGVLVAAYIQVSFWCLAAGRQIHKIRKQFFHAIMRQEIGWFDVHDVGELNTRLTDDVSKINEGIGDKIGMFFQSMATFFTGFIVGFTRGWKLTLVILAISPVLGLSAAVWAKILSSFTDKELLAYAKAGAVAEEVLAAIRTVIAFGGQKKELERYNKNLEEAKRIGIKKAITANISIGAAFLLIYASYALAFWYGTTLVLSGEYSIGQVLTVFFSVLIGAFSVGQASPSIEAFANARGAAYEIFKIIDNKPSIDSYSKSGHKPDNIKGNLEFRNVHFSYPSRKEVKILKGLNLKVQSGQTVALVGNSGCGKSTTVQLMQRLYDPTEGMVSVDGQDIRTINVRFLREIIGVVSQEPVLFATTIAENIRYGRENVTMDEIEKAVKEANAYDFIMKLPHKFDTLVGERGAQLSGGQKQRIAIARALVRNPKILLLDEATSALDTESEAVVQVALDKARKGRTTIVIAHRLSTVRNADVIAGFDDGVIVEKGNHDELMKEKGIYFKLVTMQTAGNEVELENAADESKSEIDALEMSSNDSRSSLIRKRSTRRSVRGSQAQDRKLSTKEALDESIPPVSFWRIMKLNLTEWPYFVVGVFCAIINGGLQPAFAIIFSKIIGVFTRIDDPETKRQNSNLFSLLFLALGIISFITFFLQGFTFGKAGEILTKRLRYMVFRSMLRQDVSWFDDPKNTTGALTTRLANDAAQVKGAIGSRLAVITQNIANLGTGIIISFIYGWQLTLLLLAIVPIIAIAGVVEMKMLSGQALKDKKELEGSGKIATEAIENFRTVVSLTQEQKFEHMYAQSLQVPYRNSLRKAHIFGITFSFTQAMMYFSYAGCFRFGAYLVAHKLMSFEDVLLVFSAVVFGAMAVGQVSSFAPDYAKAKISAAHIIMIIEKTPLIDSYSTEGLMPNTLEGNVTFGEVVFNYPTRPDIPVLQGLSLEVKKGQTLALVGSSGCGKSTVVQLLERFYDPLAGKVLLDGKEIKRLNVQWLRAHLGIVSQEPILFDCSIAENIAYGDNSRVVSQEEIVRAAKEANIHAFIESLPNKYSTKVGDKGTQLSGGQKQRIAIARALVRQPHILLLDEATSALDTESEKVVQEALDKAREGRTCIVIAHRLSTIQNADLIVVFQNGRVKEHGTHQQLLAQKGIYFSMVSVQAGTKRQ

COc1cc2c(cc1OC)CN(CCc1ccc(NC(=O)c3cccc4c(=O)c5cccc(OC)c5[nH]c34)cc1)CC2 [GF120918, reference compound]
sensitization to daunorubicin [1]: considerable dose-depending sensitization | concentration capable of restoring drug sensitivity (as low as) [2]: 100 nM | restoration of drug sensitivity (mitoxantrone resistance) ([3]; 1 µM GF120918, EPG85-257RNOV and EPG85-257RDB, same for MCF7/BCRP clone 8 and MCF-7/AdrVp): not sufficient to restore drug sensitivity completely | resensitization to mitoxantrone ([3]; GF120918, BCRP- and P-gp-expressing stomach and mamma carcinoma-derived cell lines (Table 2, Figure 3A)): dose-depending resensitization | effect on sensitivity to daunorubicin ([3]; GF120918, the other human gastric and breast cancer cell lines (not EPG85-257RDB)): no significant effect | effect on drug accumulation [4]: only a weak dosage-depending effect | transporter inhibiting effect (mitoxantrone accumulation) [5]: very weak transporter inhibiting effect | inhibition of the mitoxantrone pump activity [6]: completely | inhibition at 1 µM [7]: 80% | increase of drug accumulation with respect to control cells [8]: 40% | inhibition at 1 µM [9]: 75% | amount of C6-NBD-PS in the BSA containing medium (outward translocation) [10]: sharp and highly significant decrease | PS transport (C6-NBD-PS outward translocation) [11]: did not affect PS transport significantly | PS analogue outward translocation (MDR1 Pgp lipid transport activity) [12]: significant reduction | growth inhibitory effect ([13]; 1 µM GF120918 alone, any of the drug-sensitive or drug-resistant cancer cell lines tested): no growth inhibitory effect | cross-resistance to the MDR modulator ([13]; multidrug-resistant tumor cell lines): No evidence of cross-resistance
